The structures appear in SMILES notation. Bounds are passed on as bounds.

Assay [1] has as its target Muscarinic acetylcholine receptor. It counts as cell membranes, Membrane.
Description: Inhibition of [3H]quinuclidinyl benzilate (QNB) binding from rat forebrain membranes in the absence of Zn
Assay [2] deals with Sodium-dependent noradrenaline transporter (Homo sapiens, UniProt P23975).
Description: Inhibitory activity against norepinephrine (NE) uptake in rat whole brain synaptosome preparation
Assay [3] has as its target Muscarinic acetylcholine receptor. It counts as cell membranes, Membrane. This is another data set of the same source.
Description: Inhibition of [3H]quinuclidinyl benzilate (QNB) binding from rat forebrain membranes in the presence of Zn
The species named for assay [4] is Mus musculus. The experiment in a line: Antagonistic activity against Scopolamine induced behavioral deficits in mice; 2/6. It counts as functional.
The species named for assay [5] is Mus musculus. The note with it: dose 0.63 mg/kg; route subcutaneous.
Description: Antagonistic activity against Scopolamine induced behavioral deficits in mice at dose 0.63 mg/kg sc
The subject of assay [6] is Mus musculus. Description: Antagonistic activity against Scopolamine induced behavioral deficits in mice at dose 0.16 mg/kg sc. It counts as functional. The note with it: route subcutaneous.
The species entered for assay [7] is Mus musculus. The experiment in a line: animal or person.
Description: Effective dose against administration in mice
In assay [8] the test system is Mus musculus. The experiment in a line: Antagonistic activity against Scopolamine induced behavioral deficits in mice at dose […] sc. In kind it is functional. The note with it: route subcutaneous.
The species entered for assay [9] is Mus musculus. Description: Antagonistic activity against Scopolamine induced behavioral deficits in mice; 2/10. In kind it is functional.
The target in the next assay is T1, Acetylcholinesterase (Rattus norvegicus, UniProt P37136).
T1 sequence (P37136 whole entry): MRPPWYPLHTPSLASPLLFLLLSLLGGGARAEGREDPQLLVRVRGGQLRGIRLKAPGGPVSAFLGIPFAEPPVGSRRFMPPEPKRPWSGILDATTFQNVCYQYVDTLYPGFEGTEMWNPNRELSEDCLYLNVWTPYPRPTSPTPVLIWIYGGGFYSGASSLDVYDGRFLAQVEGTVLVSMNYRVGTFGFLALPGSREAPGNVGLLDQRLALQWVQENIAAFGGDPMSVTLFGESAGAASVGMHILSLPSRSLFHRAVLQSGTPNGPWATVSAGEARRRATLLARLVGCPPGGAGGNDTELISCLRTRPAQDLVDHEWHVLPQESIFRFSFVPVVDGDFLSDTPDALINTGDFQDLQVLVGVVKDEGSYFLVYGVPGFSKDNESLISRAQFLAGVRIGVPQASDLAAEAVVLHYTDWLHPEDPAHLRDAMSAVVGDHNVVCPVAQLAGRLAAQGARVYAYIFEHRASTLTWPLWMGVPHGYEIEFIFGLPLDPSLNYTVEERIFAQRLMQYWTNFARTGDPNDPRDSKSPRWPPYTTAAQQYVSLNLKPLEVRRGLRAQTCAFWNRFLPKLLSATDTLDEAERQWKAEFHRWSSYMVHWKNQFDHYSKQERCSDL

Assay [10] relates to Mus musculus. Description: Antagonistic activity against Scopolamine induced behavioral deficits in mice at dose 0.04 mg/kg sc. The note with it: route subcutaneous. In kind it is functional.
Assay [11] deals with T2, Adrenergic receptor alpha-2 (Rattus norvegicus, UniProt P22086+P19328+P22909).
T2 sequence (P22086 whole entry): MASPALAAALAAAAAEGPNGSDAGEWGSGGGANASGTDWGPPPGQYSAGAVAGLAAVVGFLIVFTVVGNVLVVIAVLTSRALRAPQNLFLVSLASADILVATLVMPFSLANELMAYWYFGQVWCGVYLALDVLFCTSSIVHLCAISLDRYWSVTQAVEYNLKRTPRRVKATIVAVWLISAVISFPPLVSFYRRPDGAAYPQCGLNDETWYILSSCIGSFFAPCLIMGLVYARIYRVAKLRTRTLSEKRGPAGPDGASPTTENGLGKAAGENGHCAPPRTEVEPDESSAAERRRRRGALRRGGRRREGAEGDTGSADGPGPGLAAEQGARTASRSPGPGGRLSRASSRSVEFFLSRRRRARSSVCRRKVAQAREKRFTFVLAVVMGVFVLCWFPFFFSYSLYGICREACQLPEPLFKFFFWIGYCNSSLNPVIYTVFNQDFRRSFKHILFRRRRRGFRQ
T2 sequence (P19328 whole entry): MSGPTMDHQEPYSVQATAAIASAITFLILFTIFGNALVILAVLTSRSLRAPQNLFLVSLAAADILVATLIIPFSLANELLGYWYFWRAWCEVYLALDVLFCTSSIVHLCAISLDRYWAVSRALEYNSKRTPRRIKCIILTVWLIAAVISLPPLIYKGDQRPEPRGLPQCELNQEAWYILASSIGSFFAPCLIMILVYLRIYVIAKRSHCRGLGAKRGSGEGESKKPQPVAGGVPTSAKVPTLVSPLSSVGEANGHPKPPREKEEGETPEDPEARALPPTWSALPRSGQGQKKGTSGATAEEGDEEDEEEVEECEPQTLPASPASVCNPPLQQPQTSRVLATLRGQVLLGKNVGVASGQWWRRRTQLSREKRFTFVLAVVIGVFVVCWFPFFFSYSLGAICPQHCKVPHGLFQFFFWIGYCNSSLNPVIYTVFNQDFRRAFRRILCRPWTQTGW
T2 sequence (P22909 whole entry): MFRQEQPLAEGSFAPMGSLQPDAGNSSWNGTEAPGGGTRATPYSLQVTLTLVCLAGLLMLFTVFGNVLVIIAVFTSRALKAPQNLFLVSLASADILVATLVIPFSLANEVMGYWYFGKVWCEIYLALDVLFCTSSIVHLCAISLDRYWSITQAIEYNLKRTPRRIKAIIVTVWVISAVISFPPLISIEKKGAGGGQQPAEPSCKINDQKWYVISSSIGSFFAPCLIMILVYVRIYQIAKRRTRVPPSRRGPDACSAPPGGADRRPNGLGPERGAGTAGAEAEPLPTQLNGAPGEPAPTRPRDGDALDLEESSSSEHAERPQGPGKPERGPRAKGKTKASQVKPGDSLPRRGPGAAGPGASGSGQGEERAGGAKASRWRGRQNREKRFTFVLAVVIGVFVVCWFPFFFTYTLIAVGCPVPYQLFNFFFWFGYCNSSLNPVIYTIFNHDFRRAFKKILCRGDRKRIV
The experiment in a line: Inhibitory activity against [3H]clonidine binding to Alpha-2 adrenergic receptor in rat cortex.

Assay [12] concerns the target T3, Adrenergic receptor alpha-1 (Rattus norvegicus, UniProt P15823+P23944+P43140).
T3 sequence (P15823 whole entry): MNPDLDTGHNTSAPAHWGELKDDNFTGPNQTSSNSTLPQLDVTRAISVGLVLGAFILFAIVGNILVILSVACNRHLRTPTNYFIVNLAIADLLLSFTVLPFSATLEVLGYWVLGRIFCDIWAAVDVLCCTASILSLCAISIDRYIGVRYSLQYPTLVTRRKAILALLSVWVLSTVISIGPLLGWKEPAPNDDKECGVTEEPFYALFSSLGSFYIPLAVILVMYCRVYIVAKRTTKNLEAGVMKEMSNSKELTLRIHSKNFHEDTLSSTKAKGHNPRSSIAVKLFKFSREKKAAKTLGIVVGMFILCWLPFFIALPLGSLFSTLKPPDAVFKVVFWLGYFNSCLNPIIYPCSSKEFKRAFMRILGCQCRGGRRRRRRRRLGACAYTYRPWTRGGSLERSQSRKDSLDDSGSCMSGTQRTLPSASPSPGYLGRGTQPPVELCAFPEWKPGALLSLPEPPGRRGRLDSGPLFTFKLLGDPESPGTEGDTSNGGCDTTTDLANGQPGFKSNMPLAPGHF
T3 sequence (P23944 whole entry): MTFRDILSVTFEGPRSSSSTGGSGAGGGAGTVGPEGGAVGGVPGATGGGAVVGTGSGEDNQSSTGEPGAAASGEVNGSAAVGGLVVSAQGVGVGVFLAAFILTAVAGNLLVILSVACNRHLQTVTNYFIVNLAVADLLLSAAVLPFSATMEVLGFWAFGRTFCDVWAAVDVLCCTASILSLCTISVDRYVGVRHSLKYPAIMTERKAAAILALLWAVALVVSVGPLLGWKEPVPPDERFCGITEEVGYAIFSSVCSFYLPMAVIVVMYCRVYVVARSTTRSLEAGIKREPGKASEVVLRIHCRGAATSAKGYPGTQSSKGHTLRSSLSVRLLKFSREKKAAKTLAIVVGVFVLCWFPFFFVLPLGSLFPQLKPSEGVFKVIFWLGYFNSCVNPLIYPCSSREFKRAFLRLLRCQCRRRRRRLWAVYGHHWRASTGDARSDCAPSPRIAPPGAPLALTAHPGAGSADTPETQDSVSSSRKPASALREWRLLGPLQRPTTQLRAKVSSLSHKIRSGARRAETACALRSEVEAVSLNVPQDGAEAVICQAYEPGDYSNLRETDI
T3 sequence (P43140 whole entry): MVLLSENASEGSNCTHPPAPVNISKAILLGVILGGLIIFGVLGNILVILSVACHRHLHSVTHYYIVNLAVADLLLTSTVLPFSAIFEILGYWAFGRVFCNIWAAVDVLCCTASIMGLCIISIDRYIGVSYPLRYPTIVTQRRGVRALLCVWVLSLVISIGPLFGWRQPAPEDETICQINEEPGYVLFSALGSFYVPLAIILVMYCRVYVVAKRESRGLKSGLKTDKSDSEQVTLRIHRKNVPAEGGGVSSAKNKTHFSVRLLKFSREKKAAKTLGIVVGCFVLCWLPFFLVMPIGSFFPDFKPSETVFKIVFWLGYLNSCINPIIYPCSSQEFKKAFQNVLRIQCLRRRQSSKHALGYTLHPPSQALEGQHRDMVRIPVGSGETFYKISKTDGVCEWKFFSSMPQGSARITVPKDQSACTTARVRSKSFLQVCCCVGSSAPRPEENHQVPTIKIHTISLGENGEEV
Description: Inhibitory activity against [3H]WB-4101 binding to Alpha-1 adrenergic receptor in rat whole brain membrane. It counts as cell membranes.

Assay [13] has as its system Mus musculus. Description: Antagonistic activity against Scopolamine induced behavioral deficits in mice at dose 10 mg/kg sc. The note with it: route subcutaneous. It counts as functional.
Assay [14] has as its system Mus musculus. Description: Antagonistic activity against Scopolamine induced behavioral deficits in mice at dose 5.0 mg/kg sc; 2/8. In kind it is functional.
For assay [15], the system named is Mus musculus. Description: Antagonistic activity against Scopolamine induced behavioral deficits in mice at dose 1.25 mg/kg sc. In kind it is functional. To be noted: route subcutaneous.

Sodium-dependent noradrenaline transporter, sequence (P23975 whole entry): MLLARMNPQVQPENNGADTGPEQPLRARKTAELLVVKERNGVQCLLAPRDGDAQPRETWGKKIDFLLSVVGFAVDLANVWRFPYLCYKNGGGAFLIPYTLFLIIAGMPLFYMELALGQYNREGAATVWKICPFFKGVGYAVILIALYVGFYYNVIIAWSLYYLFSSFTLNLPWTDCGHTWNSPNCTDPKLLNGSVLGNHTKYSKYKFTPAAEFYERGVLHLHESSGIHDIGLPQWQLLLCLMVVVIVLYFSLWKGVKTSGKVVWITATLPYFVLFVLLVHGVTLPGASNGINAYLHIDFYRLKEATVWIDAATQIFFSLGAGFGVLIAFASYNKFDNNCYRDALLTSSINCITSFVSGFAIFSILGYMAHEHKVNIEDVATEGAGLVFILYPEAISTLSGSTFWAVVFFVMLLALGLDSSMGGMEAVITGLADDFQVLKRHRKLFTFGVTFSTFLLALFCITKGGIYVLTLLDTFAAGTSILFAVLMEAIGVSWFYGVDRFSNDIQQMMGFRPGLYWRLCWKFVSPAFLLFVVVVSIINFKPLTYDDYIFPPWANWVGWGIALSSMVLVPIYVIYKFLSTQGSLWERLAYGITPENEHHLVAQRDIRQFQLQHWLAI
Description for Acetylcholinesterase: Inhibitory activity against acetylcholinesterase in rat striatal preparation

As a reminder, the IC50 is the midpoint of a concentration-inhibition curve. For orientation: ED50 means the dose at which the effect has come halfway, by size or by number of responders. Lower therefore signals an effect at a small dose. For `CCCN(c1[nH]cnc2ncnc1-2)n1ccc2ccccc21`, the IC50 in assay [1] is greater than 300 µM; in assay [2] it was 12 µM; in assay [3], 58 µM. The compound also came in with an Antagonism in the assay listed under Mus musculus [4] of 2. The Response in the assay listed under Mus musculus [5] and in the assay with Mus musculus [6] was 20% each time. Further, in the assay listed under Mus musculus [7], the ED50 is greater than 20 mg/kg.

Regarding `CCCN(c1ccncc1)n1cc(C)c2ccccc21`, the results for the Response in the assay on Mus musculus [8] and with Mus musculus [10] were 20% and 22%, respectively. The IC50 in [1] was found to be 19 µM; in assay [2], 1.3 µM; in assay [3] it was 4.5 µM; at Acetylcholinesterase it was 29 µM; in assay [11] it was 2.5 µM. This compound also gave an Antagonism in the assay listed under Mus musculus [9] of 2. The ED50 in the assay filed under Mus musculus [7] worked out at 1.8 mg/kg.

Regarding `CCCN(c1ccncc1)n1c2ccccc2c2ccccc21.O=C(O)/C=C/C(=O)O`, the IC50 is 3.2 µM in assay [12]; 5.5 µM in [1]; 2.4 µM in assay [2]; 0.5 µM in [3]; greater than 100 µM against Acetylcholinesterase; 0.54 µM in [11]. The Response in the assay with Mus musculus [13] stood at 24%; in the assay with Mus musculus [15], 20%. Besides, in the assay on Mus musculus [14], the Antagonism was found to be 2. This compound had a median effective dose (ED50) in the assay listed under Mus musculus [7] of 1.5 mg/kg.
